# Measured values reported in PubChem BioAssay (NCI).
#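 Exposure lasted 48 hours, with cells grown in 96-well plates and compounds tested at five concentrations. TGI: concentration producing complete growth inhibition.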
# Columns and labels:
# Test in all cases: inhibition of tumour cell growth, NCI panel, 48 h
# [1] = system: SNB-75 CNS
# [2] = system: OVCAR-3 ovarian
# [3] = system: COLO 205 colon
# [4] = system: SK-MEL-28 melanoma
# [5] = system: NCI-H23 lung
# [6] = system: NCI/ADR-RES ovarian
# [7] = system: LOX IMVI melanoma
# [8] = system: U251 CNS
# [9] = system: SF-295 CNS
# [10] = system: HT29 colon
# [11] = system: BT-549 breast
# [12] = system: KM12 colon
# [13] = system: OVCAR-8 ovarian
# [14] = system: MOLT-4 leukemia
# [15] = system: CAKI-1 renal
# [16] = system: RXF 393 renal
# [17] = system: SK-MEL-2 melanoma
# [18] = system: K-562 leukemia
# [19] = system: DU-145 prostate
# [20] = system: NCI-H522 lung
# [21] = system: NCI-H226 lung
# [22] = system: RPMI-8226 leukemia
# [23] = system: HOP-92 NSCLC
# [24] = system: HL-60(TB) leukemia
# [25] = system: HCC-2998 colon
# [26] = system: IGROV1 ovarian
# [27] = system: PC-3 prostate
# [28] = system: HS 578T breast
# [29] = system: MDA-MB-435
# [30] = system: UACC-62 melanoma
# [31] = system: MDA-N
# [32] = system: NCI-H460 lung
# [33] = system: SF-268 CNS
# [34] = system: UACC-257 melanoma
# [35] = system: SN12C renal
# [36] = system: M14 melanoma
# [37] = system: SK-MEL-5 melanoma
# [38] = system: MDA-MB-231 breast
# [39] = system: MCF7 breast
# [40] = system: HCT-15 colon
# [41] = system: OVCAR-5 ovarian
# [42] = system: HCT-116 colon
# [43] = system: SW-620 colon
# [44] = system: TK-10 renal
# [45] = system: EKVX NSCLC
# [46] = system: SF-539 CNS
# [47] = system: HOP-62 NSCLC
# [48] = system: MALME-3M melanoma
# [49] = system: SNB-19 CNS
# [50] = system: A498 renal
# [51] = system: ACHN renal
# [52] = system: SK-OV-3 ovarian
# [53] = system: SR leukemia
# [54] = system: T-47D breast
# [55] = system: A549 NSCLC
# [56] = system: 786-0 renal
# [57] = system: CCRF-CEM leukemia
# [58] = system: OVCAR-4 ovarian
# [59] = system: UO-31 renal
compound,measurement,setting,value
O=C1C=C2C(=NC34CCCCC3C(c3ccccc3)C3=C(c5ccccc5CC3)N24)c2ccccc21 (stereo unspecified),TGI,[1],> 10 µM
same,TGI,[2],> 10 µM
same,TGI,[3],> 10 µM
same,TGI,[4],> 10 µM
same,TGI,[5],> 10 µM
same,TGI,[6],> 10 µM
same,TGI,[7],> 10 µM
same,TGI,[8],> 10 µM
same,TGI,[9],> 10 µM
same,TGI,[10],> 10 µM
same,TGI,[11],> 10 µM
same,TGI,[12],> 10 µM
same,TGI,[13],> 10 µM
same,TGI,[14],> 10 µM
same,TGI,[15],> 10 µM
same,TGI,[16],> 10 µM
same,TGI,[17],> 10 µM
same,TGI,[18],> 10 µM
same,TGI,[19],> 10 µM
same,TGI,[20],> 10 µM
same,TGI,[21],> 10 µM
same,TGI,[22],> 10 µM
same,TGI,[23],> 10 µM
same,TGI,[24],> 10 µM
same,TGI,[25],> 10 µM
same,TGI,[26],> 10 µM
same,TGI,[27],> 10 µM
same,TGI,[28],> 10 µM
same,TGI,[29],> 10 µM
same,TGI,[30],> 10 µM
same,TGI,[31],> 10 µM
same,TGI,[32],> 10 µM
same,TGI,[33],> 10 µM
same,TGI,[34],> 10 µM
same,TGI,[35],> 10 µM
same,TGI,[36],> 10 µM
same,TGI,[37],> 10 µM
same,TGI,[38],> 10 µM
same,TGI,[39],> 10 µM
same,TGI,[40],> 10 µM
same,TGI,[41],> 10 µM
same,TGI,[42],> 10 µM
same,TGI,[43],> 10 µM
same,TGI,[44],> 10 µM
same,TGI,[45],> 10 µM
same,TGI,[46],> 10 µM
same,TGI,[47],> 10 µM
same,TGI,[48],> 10 µM
same,TGI,[49],> 10 µM
same,TGI,[50],> 10 µM
same,TGI,[51],> 10 µM
same,TGI,[52],> 10 µM
same,TGI,[53],> 10 µM
same,TGI,[54],> 10 µM
same,TGI,[55],> 10 µM
same,TGI,[56],> 10 µM
same,TGI,[57],> 10 µM
same,TGI,[58],> 10 µM
CCOC(=O)c1c2c(n3ccccc13)C(=O)c1ccccc1C2=O,TGI,[1],74.6 µM
same,TGI,[2],> 100 µM
same,TGI,[3],> 100 µM
same,TGI,[4],> 100 µM
same,TGI,[5],> 100 µM
same,TGI,[6],> 100 µM
same,TGI,[7],> 100 µM
same,TGI,[8],> 100 µM
same,TGI,[9],> 100 µM
same,TGI,[10],> 100 µM
same,TGI,[11],> 100 µM
same,TGI,[12],> 100 µM
same,TGI,[13],> 100 µM
same,TGI,[14],> 100 µM
same,TGI,[15],> 100 µM
same,TGI,[16],> 100 µM
same,TGI,[17],> 100 µM
same,TGI,[18],> 100 µM
same,TGI,[19],> 100 µM
same,TGI,[20],> 100 µM
same,TGI,[21],> 100 µM
same,TGI,[22],> 100 µM
same,TGI,[23],> 100 µM
same,TGI,[24],> 100 µM
same,TGI,[25],7.59 µM
same,TGI,[26],> 100 µM
same,TGI,[59],> 100 µM
same,TGI,[27],> 100 µM
same,TGI,[28],> 100 µM
same,TGI,[29],> 100 µM
same,TGI,[30],> 100 µM
same,TGI,[31],> 100 µM
same,TGI,[32],15.6 µM
same,TGI,[33],> 100 µM
same,TGI,[34],> 100 µM
same,TGI,[35],> 100 µM
same,TGI,[36],> 100 µM
same,TGI,[37],> 100 µM
same,TGI,[38],> 100 µM
same,TGI,[39],> 100 µM
same,TGI,[40],> 100 µM
same,TGI,[41],> 100 µM
same,TGI,[42],> 100 µM
same,TGI,[43],> 100 µM
same,TGI,[44],> 100 µM
same,TGI,[45],> 100 µM
same,TGI,[46],> 100 µM
same,TGI,[47],> 100 µM
same,TGI,[48],> 100 µM
same,TGI,[49],> 100 µM
same,TGI,[50],> 100 µM
same,TGI,[51],> 100 µM
same,TGI,[52],> 100 µM
same,TGI,[53],> 100 µM
same,TGI,[54],> 100 µM
same,TGI,[55],43.2 µM
same,TGI,[56],> 100 µM
same,TGI,[58],> 100 µM
